# Assays:
# Assay in all cases: relative viability (nuclei count vs DMSO), 5 days (fraction); higher = more cells survive
# [1] = tested on: 201T
# Method in brief: (§1)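 The day after seeding in 1536-well plates, lung cancer cell lines were treated by pin tool with a single drug, or with a fixed anchor-drug dose together with five library-drug doses (not always all listed) in √10 steps. After 5 days, a combined fix-and-stain solution (final 0.05% Triton X-100, 1% formaldehyde, 1 ug/ml Hoechst) was added. Nuclei counted on 4× images gave relative viability as treated counts over vehicle counts, reported as the median of duplicate plates.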
# [2] = tested on: A-427
# Method in brief: as §1
# [3] = tested on: ABC-1
# Method in brief: as §1
# [4] = tested on: BEN
# Method in brief: as §1
# [5] = tested on: CAL-12T
# Method in brief: as §1
# [6] = tested on: H3255
# Method in brief: as §1
# [7] = tested on: HCC-15
# Method in brief: as §1
# [8] = tested on: LC-2-ad
# Method in brief: as §1
# [9] = tested on: LCLC-97TM1
# Method in brief: as §1
# [10] = tested on: NCI-H1650
# Method in brief: as §1
# [11] = tested on: NCI-H1651
# Method in brief: as §1
# [12] = tested on: NCI-H1792
# Method in brief: as §1
# [13] = tested on: NCI-H1915
# Method in brief: as §1
# [14] = tested on: NCI-H1944
# Method in brief: as §1
# [15] = tested on: NCI-H2023
# Method in brief: as §1
# [16] = tested on: NCI-H2087
# Method in brief: as §1
# [17] = tested on: NCI-H441
# Method in brief: as §1
# [18] = tested on: NCI-H460
# Method in brief: as §1
# [19] = tested on: NCI-H520
# Method in brief: as §1
# [20] = tested on: NCI-H596
# Method in brief: as §1
# [21] = tested on: NCI-H650
# Method in brief: as §1
# [22] = tested on: NCI-H661
# Method in brief: as §1
# [23] = tested on: NCI-H727
# Method in brief: as §1
# [24] = tested on: PC-3 [JPC-3]
# Method in brief: as §1
smiles,measurement,setting,value
C[C@@H]1CN(CC(=O)Nc2ccc3c(c2)Cc2cccc(-c4cc(=O)cc(N5CCOCC5)o4)c2S3)C[C@H](C)O1 + CS(=O)(=O)N1CCN(Cc2cc3nc(-c4cccc5[nH]ncc45)nc(N4CCOCC4)c3s2)CC1 [Pictilisib] (partner 1 µM),relative viability,[1]; first compound 0.04 µM,0.668
same,relative viability,[1]; first compound 0.1265 µM,0.65
same,relative viability,[1]; first compound 0.4 µM,0.652
same,relative viability,[1]; first compound 4 µM,0.647
same,relative viability,[2]; first compound 0.04 µM,0.581
same,relative viability,[2]; first compound 0.1265 µM,0.674
same,relative viability,[2]; first compound 0.4 µM,0.679
same,relative viability,[2]; first compound 4 µM,0.675
same,relative viability,[3]; first compound 0.1265 µM,0.69
same,relative viability,[3]; first compound 0.4 µM,0.636
same,relative viability,[3]; first compound 4 µM,0.854
same,relative viability,[4]; first compound 0.04 µM,0.556
same,relative viability,[4]; first compound 0.1265 µM,0.537
same,relative viability,[4]; first compound 0.4 µM,0.601
same,relative viability,[4]; first compound 4 µM,0.513
same,relative viability,[5]; first compound 0.04 µM,0.396
same,relative viability,[5]; first compound 0.1265 µM,0.487
same,relative viability,[5]; first compound 0.4 µM,0.396
same,relative viability,[5]; first compound 4 µM,0.378
same,relative viability,[6]; first compound 0.04 µM,0.483
same,relative viability,[6]; first compound 0.1265 µM,0.535
same,relative viability,[6]; first compound 0.4 µM,0.452
same,relative viability,[6]; first compound 4 µM,0.446
same,relative viability,[7]; first compound 0.04 µM,0.815
same,relative viability,[7]; first compound 0.1265 µM,0.649
same,relative viability,[7]; first compound 0.4 µM,0.796
same,relative viability,[7]; first compound 4 µM,0.636
same,relative viability,[8]; first compound 0.04 µM,1.12
same,relative viability,[8]; first compound 0.1265 µM,0.43
same,relative viability,[8]; first compound 0.4 µM,0.29
same,relative viability,[8]; first compound 4 µM,0.537
same,relative viability,[9]; first compound 0.1265 µM,0.191
same,relative viability,[9]; first compound 0.4 µM,0.144
same,relative viability,[9]; first compound 4 µM,0.18
same,relative viability,[10]; first compound 0.04 µM,0.32
same,relative viability,[10]; first compound 0.1265 µM,0.605
same,relative viability,[10]; first compound 0.4 µM,0.651
same,relative viability,[10]; first compound 4 µM,0.621
same,relative viability,[11]; first compound 0.04 µM,0.59
same,relative viability,[11]; first compound 0.1265 µM,0.491
same,relative viability,[11]; first compound 0.4 µM,0.612
same,relative viability,[11]; first compound 4 µM,0.568
same,relative viability,[12]; first compound 0.04 µM,0.242
same,relative viability,[12]; first compound 0.1265 µM,0.264
same,relative viability,[12]; first compound 0.4 µM,0.274
same,relative viability,[12]; first compound 4 µM,0.287
same,relative viability,[13]; first compound 0.04 µM,0.888
same,relative viability,[13]; first compound 0.1265 µM,0.961
same,relative viability,[13]; first compound 0.4 µM,0.97
same,relative viability,[13]; first compound 4 µM,0.774
same,relative viability,[14]; first compound 0.1265 µM,0.328
same,relative viability,[14]; first compound 0.4 µM,0.336
same,relative viability,[14]; first compound 4 µM,0.33
same,relative viability,[15]; first compound 0.04 µM,0.115
same,relative viability,[15]; first compound 0.1265 µM,0.262
same,relative viability,[15]; first compound 0.4 µM,0.197
same,relative viability,[15]; first compound 4 µM,0.198
same,relative viability,[16]; first compound 0.04 µM,1.05
same,relative viability,[16]; first compound 0.1265 µM,0.806
same,relative viability,[16]; first compound 0.4 µM,1.02
same,relative viability,[16]; first compound 4 µM,0.541
same,relative viability,[17]; first compound 0.04 µM,0.526
same,relative viability,[17]; first compound 0.1265 µM,0.447
same,relative viability,[17]; first compound 0.4 µM,0.43
same,relative viability,[17]; first compound 4 µM,0.372
same,relative viability,[18]; first compound 0.04 µM,0.258
same,relative viability,[18]; first compound 0.1265 µM,0.404
same,relative viability,[18]; first compound 0.4 µM,0.279
same,relative viability,[18]; first compound 4 µM,0.346
same,relative viability,[19]; first compound 0.04 µM,0.329
same,relative viability,[19]; first compound 0.1265 µM,0.281
same,relative viability,[19]; first compound 0.4 µM,0.31
same,relative viability,[19]; first compound 4 µM,0.374
same,relative viability,[20]; first compound 0.04 µM,0.386
same,relative viability,[20]; first compound 0.1265 µM,0.417
same,relative viability,[20]; first compound 0.4 µM,0.404
same,relative viability,[20]; first compound 4 µM,0.41
same,relative viability,[21]; first compound 0.04 µM,0.828
same,relative viability,[21]; first compound 0.1265 µM,0.886
same,relative viability,[21]; first compound 0.4 µM,0.89
same,relative viability,[21]; first compound 4 µM,0.806
same,relative viability,[22]; first compound 0.04 µM,0.408
same,relative viability,[22]; first compound 0.1265 µM,0.381
same,relative viability,[22]; first compound 0.4 µM,0.381
same,relative viability,[22]; first compound 4 µM,0.448
same,relative viability,[23]; first compound 0.04 µM,0.291
same,relative viability,[23]; first compound 0.1265 µM,0.421
same,relative viability,[23]; first compound 0.4 µM,0.252
same,relative viability,[23]; first compound 4 µM,0.385
same,relative viability,[24]; first compound 0.04 µM,0.714
same,relative viability,[24]; first compound 0.1265 µM,0.724
same,relative viability,[24]; first compound 0.4 µM,0.801
same,relative viability,[24]; first compound 4 µM,0.669
C[C@@H]1CN(CC(=O)Nc2ccc3c(c2)Cc2cccc(-c4cc(=O)cc(N5CCOCC5)o4)c2S3)C[C@H](C)O1 + C[C@@H](Oc1cc(-c2cnn(C3CCNCC3)c2)cnc1N)c1c(Cl)ccc(F)c1Cl [Crizotinib] (partner 1 µM),relative viability,[1]; first compound 0.04 µM,1.05
same,relative viability,[1]; first compound 0.1265 µM,0.98
same,relative viability,[1]; first compound 0.4 µM,1.04
same,relative viability,[1]; first compound 4 µM,0.971
same,relative viability,[2]; first compound 0.04 µM,1.04
same,relative viability,[2]; first compound 0.1265 µM,0.941
same,relative viability,[2]; first compound 0.4 µM,0.827
same,relative viability,[2]; first compound 4 µM,0.844
same,relative viability,[3]; first compound 0.1265 µM,1.17
same,relative viability,[3]; first compound 0.4 µM,1.15
same,relative viability,[3]; first compound 4 µM,0.723
same,relative viability,[4]; first compound 0.04 µM,0.812
same,relative viability,[4]; first compound 0.1265 µM,0.82
same,relative viability,[4]; first compound 0.4 µM,0.964
same,relative viability,[4]; first compound 4 µM,0.95
same,relative viability,[5]; first compound 0.04 µM,0.644
same,relative viability,[5]; first compound 0.1265 µM,0.526
same,relative viability,[5]; first compound 0.4 µM,0.693
same,relative viability,[5]; first compound 4 µM,0.297
same,relative viability,[6]; first compound 0.04 µM,0.824
same,relative viability,[6]; first compound 0.1265 µM,0.785
same,relative viability,[6]; first compound 0.4 µM,0.814
same,relative viability,[6]; first compound 4 µM,0.719
same,relative viability,[7]; first compound 0.04 µM,0.8
same,relative viability,[7]; first compound 0.1265 µM,0.75
same,relative viability,[7]; first compound 0.4 µM,0.831
same,relative viability,[7]; first compound 4 µM,0.734
same,relative viability,[8]; first compound 0.04 µM,0.386
same,relative viability,[8]; first compound 0.1265 µM,0.455
same,relative viability,[8]; first compound 0.4 µM,0.434
same,relative viability,[8]; first compound 4 µM,0.43
same,relative viability,[9]; first compound 0.1265 µM,0.396
same,relative viability,[9]; first compound 0.4 µM,0.287
same,relative viability,[9]; first compound 4 µM,0.337
same,relative viability,[10]; first compound 0.04 µM,0.991
same,relative viability,[10]; first compound 0.1265 µM,0.959
same,relative viability,[10]; first compound 0.4 µM,1.1
same,relative viability,[10]; first compound 4 µM,0.55
same,relative viability,[11]; first compound 0.04 µM,0.842
same,relative viability,[11]; first compound 0.1265 µM,0.859
same,relative viability,[11]; first compound 0.4 µM,0.903
same,relative viability,[11]; first compound 4 µM,0.882
same,relative viability,[12]; first compound 0.04 µM,0.966
same,relative viability,[12]; first compound 0.1265 µM,0.921
same,relative viability,[12]; first compound 0.4 µM,0.959
same,relative viability,[12]; first compound 4 µM,0.932
same,relative viability,[13]; first compound 0.04 µM,0.9
same,relative viability,[13]; first compound 0.1265 µM,0.886
same,relative viability,[13]; first compound 0.4 µM,0.95
same,relative viability,[13]; first compound 4 µM,0.853
same,relative viability,[14]; first compound 0.1265 µM,1.09
same,relative viability,[14]; first compound 0.4 µM,1.22
same,relative viability,[14]; first compound 4 µM,1.16
same,relative viability,[15]; first compound 0.04 µM,0.655
same,relative viability,[15]; first compound 0.1265 µM,0.634
same,relative viability,[15]; first compound 0.4 µM,0.664
same,relative viability,[15]; first compound 4 µM,0.516
same,relative viability,[16]; first compound 0.04 µM,0.936
same,relative viability,[16]; first compound 0.1265 µM,0.929
same,relative viability,[16]; first compound 0.4 µM,0.895
same,relative viability,[16]; first compound 4 µM,0.748
same,relative viability,[17]; first compound 0.04 µM,0.944
same,relative viability,[17]; first compound 0.1265 µM,0.788
same,relative viability,[17]; first compound 0.4 µM,0.707
same,relative viability,[17]; first compound 4 µM,0.587
same,relative viability,[18]; first compound 0.04 µM,0.973
same,relative viability,[18]; first compound 0.1265 µM,0.924
same,relative viability,[18]; first compound 0.4 µM,0.971
same,relative viability,[18]; first compound 4 µM,0.662
same,relative viability,[19]; first compound 0.04 µM,0.64
same,relative viability,[19]; first compound 0.1265 µM,0.711
same,relative viability,[19]; first compound 0.4 µM,0.497
same,relative viability,[19]; first compound 4 µM,0.534
same,relative viability,[20]; first compound 0.04 µM,0.934
same,relative viability,[20]; first compound 0.1265 µM,0.928
same,relative viability,[20]; first compound 0.4 µM,0.983
same,relative viability,[20]; first compound 4 µM,0.964
same,relative viability,[21]; first compound 0.04 µM,0.433
same,relative viability,[21]; first compound 0.1265 µM,0.753
same,relative viability,[21]; first compound 0.4 µM,0.727
same,relative viability,[21]; first compound 4 µM,0.602
same,relative viability,[22]; first compound 0.04 µM,1.07
same,relative viability,[22]; first compound 0.1265 µM,1.01
same,relative viability,[22]; first compound 0.4 µM,1.02
same,relative viability,[22]; first compound 4 µM,0.885
same,relative viability,[23]; first compound 0.04 µM,0.891
same,relative viability,[23]; first compound 0.1265 µM,0.746
same,relative viability,[23]; first compound 0.4 µM,0.927
same,relative viability,[23]; first compound 4 µM,0.624
same,relative viability,[24]; first compound 0.04 µM,0.947
same,relative viability,[24]; first compound 0.1265 µM,0.936
same,relative viability,[24]; first compound 0.4 µM,0.971
same,relative viability,[24]; first compound 4 µM,0.962

# From the supplement of paper PMC10307832
